Experimental findings from PMC6362252, “A cell-free platform for the prenylation of natural products and application to cannabinoid production” (Nature Communications, 2019) are described below.

The target of assay [1] is T1, cannabidiolic acid synthase (CBDAS); CBDA synthase (Cannabis sativa, UniProt A6P6V9).
T1 construct: native signal peptide removed, starts at residue 28 (NPREN...), pPICZalpha, secreted by Pichia pastoris X33, concentrated culture medium (not purified)
Kind of assay: HPLC of product CBDA. It is filed as biochemical. Conditions: concentrated expression medium, 25 µM FAD, 5 mM MgCl2, 5 mM KCl, 50 mM Hepes pH 7.0, 30 °C, nonane overlay.

In the next assay the target is NphB (Streptomyces sp. CL190, UniProt Q4R2T2, A232S/Y288A). Particulars: M30; otherwise same.

For the molecule `CCCCCc1cc(O)c(C/C=C(\C)CCC=C(C)C)c(O)c1C(=O)O` [cannabigerolic acid], the “HPLC of product CBDA” value in assay [1] is “we employed CBDA synthase to convert CBGA into CBDA and CBGVA into CBDVA”.

As a reminder, the Km is the concentration of substrate that gives half-maximal velocity. In the case of `CCCCCc1cc(O)cc(O)c1C(=O)O` [olivetolic acid], the Km at NphB worked out at 200 ± 40 µM.
